Source: patent publication US9969989B2, “Carotenoid dioxygenase and methods for the biotechnological production in microorganisms and plants of compounds derived from saffron” (AGENZIA NAZIONALE PER LE NUOVE TECNOLOGIE, L'ENERGIA E LO …, priority 2014, dated 2018)

Legend:
[1] = test system: CCD2; assay: In vitro assay with semi-purified extracts of E. coli expressing CCD2, specificity for carotenoids; assay type: biochemical, Crocus sativus
Description: (§1) RNA isolated from stigmas of saffron was sequenced by means of RNA-Seq 454 Titanium technology as reported in the literature (10) (FIG. 2A). The evolutionary relationships between the gene families CCD1 and CCD4 of saffron, Arabidopsis, rice and Synechocystis, were studied using the Neighbor-Joining method (11) (FIG. 2B), whilst the CCD proteins were modelled using the web server RaptorX (12) (FIG. 2C). The assays in bacteria were obtained by transforming particular strains of E. coli engineered to accumulate lycopene, β-carotene, and zeaxanthin, with the expression vectors pThio-DAN1-CCD2, pThio-DAN1-ZCD and pThio-DAN1 (empty vector, used as control) as indicated in the literature (13) (14) (15) (FIG. 3). The transformation of corn endosperm, in Agrobacterium tumefaciens-mediated manner, was obtained by cloning the coding sequence of CCD2 in the vector pBI121 (16) and by using protocols already present in the literature (17). The strain of E. coli BL21 (p-Gro7) was used to assay the activity in vitro of CCD2: the raw protein extracts were prepared and incubated with the appropriate substrates and extracts as described before (14) (FIG. 4). All the analyses directed to the identification and quantification of the carotenoids and apocarotenoids were performed using a mass spectrometry platform LTQ-Orbitrap coupled with a high-pressure liquid chromatography (HPLC) system and with a diode array detector (DAD) (ThermoFisher Scientific); the chromatographic separation was obtained using a C30 column with inverse phase, whereas for positive ionisation an APCI (Atmospheric Pressure Chemical Ionization) source was selected (18).
Since the strains of genetically modified E. coli can produce only a limited number of different carotenoids, we developed and used an in vitro assay, based on semi-purified extracts of E. coli that expresses CCD2, in order to study the specificity of this enzyme for the various carotenoids. […] 3-OH-β-apo-8′-carotenal, formed from CCD2 on the basis of the zeaxanthin in vitro, is then cleaved from the CCD2, with production of crocetin, signalling that the extracts of E. coli are able to convert the product of CCD2, crocetin dialdehyde, into crocetin.

[2] = biological target: T1, ZCD (Crocus sativus, UniProt Q84K96); assay: Corn endosperm transformed with 35S:ZCD, carotenoids and apocarotenoids by LC-HRMS; assay type: cell-based; details: for Relative content of carotenoids and apocarotenoids in corn endosperm: 35S: ZCD, peak areas of the ions standardised by the internal standard, mean ± SD of 4 biological repetitions
T1 construct: expressed in transfected cells; host or cells: corn (maize) endosperm, Agrobacterium tumefaciens-mediated transformation
T1 sequence (Q84K96 1-369): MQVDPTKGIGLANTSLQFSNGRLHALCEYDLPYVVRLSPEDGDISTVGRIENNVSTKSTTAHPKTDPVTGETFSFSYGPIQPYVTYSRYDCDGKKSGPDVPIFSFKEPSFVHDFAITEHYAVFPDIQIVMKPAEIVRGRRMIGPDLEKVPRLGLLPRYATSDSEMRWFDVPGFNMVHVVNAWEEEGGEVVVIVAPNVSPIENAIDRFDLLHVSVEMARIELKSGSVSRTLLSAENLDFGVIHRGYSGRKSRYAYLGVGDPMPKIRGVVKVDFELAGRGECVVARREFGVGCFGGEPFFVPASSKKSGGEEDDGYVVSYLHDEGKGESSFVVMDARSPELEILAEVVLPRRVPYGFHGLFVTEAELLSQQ
Description: as §1
The sequences coding CCD2 and ZCD were cloned in the binary vector pBI121 under the control of the established promoter 35S. The vectors thus obtained were used to transform corn endosperm and cells of Arabidopsis thaliana, which contain zeaxanthin. […] Such a conversion is caused by the conversion of crocetin dialdehyde to crocetin in the corn endosperm (Table 1) and in the cells of Arabidopsis thaliana.

[3] = test system: CCD2; assay: CCD2 expressed in E. coli strains that accumulate lycopene, β-carotene or zeaxanthin; assay type: cell-based, Crocus sativus; details: E. coli strain accumulating the carotenoid, expression of CCD2
Description: as §1
(§2) The coding sequences of the genes CCD2 and ZCD were cloned in the vector pThio-DAN1, which allows an inducible expression in E. coli induced from arabinose. The recombinant proteins were expressed in three strains of E. coli that accumulate lycopene, β-carotene and zeaxanthin (FIG. 3A) (13) (14). […] A peak with the chromatographic and the m/z ratio (329.1747) typical of crocetin was also discernible.

[4] = biological target: T1, ZCD; assay: ZCD expressed in E. coli strains that accumulate lycopene, β-carotene or zeaxanthin; assay type: cell-based; details: E. coli strain accumulating the carotenoid, expression of ZCD
Description: as §1, §2

[5] = biological target: T1, ZCD; assay: In vitro assay with extracts of E. coli expressing ZCD, specificity for carotenoids; assay type: biochemical

Molecule	Cleavage of the substrate in vitro [1]	Relative content of carotenoids and apocarotenoids in corn endosperm [2]	Discoloration and cleavage product of the accumulated carotenoid [3]	Discoloration and cleavage product of the accumulated carotenoid [4]	also measured
3-OH-β-apo-8′-carotenal	cleaved	–	–	–	–
CC1=C[C@H](O)CC(C)(C)[C@H]1/C=C/C(C)=C/C=C/C(C)=C/C=C/C=C(C)/C=C/C=C(C)/C=C/C1=C(C)C[C@@H](O)CC1(C)C [Lutein]	–	0.64 ± 0.09	–	–	–
CC1=C(/C=C/C(C)=C/C=C/C(C)=C/C=C/C=C(C)/C=C/C=C(C)/C=C/C2=C(C)C[C@@H](O)CC2(C)C)C(C)(C)C[C@H](O)C1 [Zeaxanthin]	cleaves	1.73 ± 0.20	clear discoloration	did not produce any discoloration or any cleavage product	Cleavage product of zeaxanthin produced ([2]; corn endosperm expressing ZCD): No cleavage product; Cleavage of the substrate in vitro [5]: does not cleave
CC(C)=CCC/C(C)=C/C=C/C(C)=C/C=C/C(C)=C/C=C/C=C(C)/C=C/C=C(C)/C=C/C=C(\C)CCC=C(C)C [lycopene]	–	–	no discoloration and no cleavage product	no discoloration and no cleavage product	–
CC(/C=C/C=C(C)/C=C/[C@@]12O[C@]1(C)C[C@@H](O)CC2(C)C)=C\C=C\C=C(C)\C=C\C=C(C)\C=C\[C@@]12O[C@]1(C)C[C@@H](O)CC2(C)C [violaxanthin]	does not cleave	–	–	–	–
CC1=C(/C=C/C(C)=C/C=C/C(C)=C/C=C/C=C(C)/C=C/C=C(\C)C=O)C(C)(C)CCC1 [β-apo-8′-carotenal]	does not cleave	–	–	–	–
CC1=C(/C=C/C(C)=C/C=C/C(C)=C/C=C/C=C(C)/C=C/C=C(C)/C=C/C2=C(C)CCCC2(C)C)C(C)(C)CCC1 [β-carotene]	does not cleave	–	no discoloration and no cleavage product	no discoloration and no cleavage product	–
CC1=C(/C=C/C(C)=C/C=C/C(C)=C/C=C/C=C(C)/C=C/C=C(C)/C=C/C2=C(C)C[C@@H](O)CC2(C)C)C(C)(C)CCC1 [β-cryptoxanthin]	–	0.12 ± 0.04	–	–	–
